Data as given in patent US20240238428A1 (priority 2021, published 2024).
Like-named read-outs stand apart in the source and are kept apart here.

Key:
normal human lung cells = conditions: up to 10 μM
PC-3 cells = type: cell-based
DU-145 cells = type: cell-based
normal prostate cells = type: cell-based
virus gp 120 and CD4 = virus gp 120 and CD4 (Human immunodeficiency virus type 1 group M subtype B, UniProt P04578); conditions: peptide without selenium; only observed at this relatively high concentration; cited from earlier work
HIV = conditions: peptide without selenium, cited from earlier work

selenium adduct of dihydrotesterone [SeDHT]
sensitivity of cells (normal human lung cells): Only the prostate cells are sensitive
sensitivity of cells (colorectal cancer cells): Only the prostate cells are sensitive
concentration that kills the cells (PC-3 cells): less than 10 micromolar
concentration that kills the cells (DU-145 cells): less than 10 micromolar
sensitivity of cells (normal prostate cells): sensitive

Se-TYICEVEDQKEE
inactivation of HIV (HIV-1; 10 μg/ml): over 95%
concentration for 50% inactivation of HIV (HIV-1; 0.25 mM reduced glutathione): 1 microgram per ml
inhibition of cell infection (HIV-1; 0.006 micrograms per ml): over 50%
inhibition of cell infection (HIV-1; 0.5 micrograms per ml): over 99%
inactivation of HIV virus (HIV-1; 10 micrograms per ml, 0.25 mM reduced glutathione, within 1 hour): 95%
concentration for 50% (half maximal) inactivation of HIV (HIV-1; 1 hour pre-incubation, 0.25 mM reduced glutathione): 1 µg/mL
concentration of peptide that binds and inactivates HIV in one hour (HIV-1; one hour): 0.5 µg/mL
IC50 (HIV-1; read-out: concentration for half maximal inactivation of virus, peptide in the medium during infection, after 100-fold dilution in culture medium): 5.9 nM
IC50 (HIV-1; read-out: concentration for half maximal inactivation of virus, peptide during the 1 hour pre-incubation): 590 nM
inactivation of HIV-1 (ability of infected cells to produce virus) (HIV-1; seleno-peptide 0.1 ug/ml, one hour with glutathione 250 uM): 95%
increase in effectiveness at preventing infection by coupling selenium to the 12-mer peptide (HIV-1; versus peptide without selenium): 50 fold

TYICEVEDQKEE [gp120-binding 12-mer peptide]
concentration at which an effect on the gp 120-CD4 interaction was observed (virus gp 120 and CD4): 457 micrograms per ml
peptide concentration with 50% infection blocking activity (HIV; corresponds to 32 μM): about 50 μg/ml
IC50 (HIV; read-out: peptide concentration with 50% infection blocking activity): 32000 nM
effect of peptide without selenium on HIV (HIV-1; even at 100 μg/ml, the highest concentration tested): no significant effect
effect of control peptide solution on HIV-1 inactivation (HIV-1; peptide without selenium): no effect
